These results are taken from patent US9370474B2, “High-clarity aqueous concentrates of 4-hexylresorcinol” (JOHNSON & JOHNSON CONSUMER INC., priority 2009, dated 2016).

The conditions of data set [1]: cited from earlier work.
A short description of data set [2]: Clarity of mixtures of resorcinol/phenol analogues with water. The settings on record: separately mixed with water at 50% and 75% concentrations. Format: physicochemical. From the text:
4-Octylresorcinol and 3-methoxyphenol (from Sigma-Aldrich of St. Louis, Mo.) were separately mixed with water at 50% and 75% concentrations.

Regarding `CCCCCCc1ccc(O)cc1O` [Example 4-HR, 4-Hexylresorcinol], the “Water solubility (prior art characterization)” value in data set [1] was “water-insoluble”.
`COc1cccc(O)c1` [3-methoxyphenol]: in data set [2], the “Clarity / appearance of mixtures with water” value was “None of the mixtures were clear”.
On the same count and under the same terms, the entry for `CCCCCCCCc1ccc(O)cc1O` [4-Octylresorcinol] is “None of the mixtures were clear”.
